For 19 compounds, IC50 results are on record in ChEMBL document CHEMBL4417631, “Oral peptide inhibitors of interleukin-23 receptor and their use to treat inflammatory bowel diseases” (2017).

*1 amine or outer side, *2 acyl side, *3 side chain or, on linkers, in order; H or OH if unused. Where a SMILES comes first, the peptide text is derived from it. Bridges are numbered along the chain shown (N, C = ends). [ ]: non-standard residue; d: D form. The star is where a group is joined. Abu(4-yl) = O=C([C@H](CC[*:3])N[*:1])[*:2]; AEF = NCCOc1ccc(C[C@H](N)C(=O)O)cc1; Palmitoyl = CCCCCCCCCCCCCCCC(=O)*; Tic = O=C(O)[C@@H]1Cc2ccccc2CN1; αMeK = C[C@](N)(CCCCN)C(=O)O; Dap = NC[C@H](N)C(=O)O; OBn = c1ccc(CO*)cc1

For the test, the target named is T1, Interleukin-23 receptor (Homo sapiens, UniProt Q5VWK5).
T1 sequence (Q5VWK5 whole entry): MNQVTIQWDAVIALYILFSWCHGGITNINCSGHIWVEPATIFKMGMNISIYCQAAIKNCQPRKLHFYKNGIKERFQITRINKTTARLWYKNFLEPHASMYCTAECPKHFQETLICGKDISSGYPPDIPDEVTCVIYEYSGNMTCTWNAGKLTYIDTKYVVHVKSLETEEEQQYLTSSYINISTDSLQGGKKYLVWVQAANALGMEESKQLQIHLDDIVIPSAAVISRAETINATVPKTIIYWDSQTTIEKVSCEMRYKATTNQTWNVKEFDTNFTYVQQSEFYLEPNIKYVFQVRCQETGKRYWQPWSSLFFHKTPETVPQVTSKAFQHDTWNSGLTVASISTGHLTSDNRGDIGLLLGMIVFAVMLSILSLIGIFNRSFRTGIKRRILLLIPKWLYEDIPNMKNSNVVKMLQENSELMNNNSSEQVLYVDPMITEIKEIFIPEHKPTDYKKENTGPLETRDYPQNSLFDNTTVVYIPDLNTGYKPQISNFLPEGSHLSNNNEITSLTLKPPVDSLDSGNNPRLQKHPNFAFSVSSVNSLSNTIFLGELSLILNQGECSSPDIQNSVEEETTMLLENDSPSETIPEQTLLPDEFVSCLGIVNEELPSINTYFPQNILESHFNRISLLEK
Kind of test: Inhibition of interleukin-23 binding to human interleukin-23 receptor incubated for 2 hrs by competitive binding ELISA.

Turning to `CC(=O)NCCCC[C@H](NC(=O)[C@](C)(CCCCN)NC(=O)[C@H](CCC(=O)OCc1ccccc1)NC(=O)[C@H](Cc1ccc(OCCN)cc1)NC(=O)[C@@H]1CSCC[C@H](NC(C)=O)C(=O)N[C@@H](CN)C(=O)N[C@@H]([C@@H](C)O)C(=O)N[C@@H](Cc2c[nH]c3ccccc23)C(=O)N[C@@H](CCC(N)=O)C(=O)N1)C(=O)N[C@@H](CC(N)=O)C(=O)NCC(N)=O` (Ac-[Abu(4-yl)][Dap]TWQC[AEF]E(OBn)[αMeK]K(Ac)NG-NH2; thioether 1-6), the IC50 was > 3000 nM. The compound `CC(C)[C@H](NC(=O)[C@H](Cc1cnc[nH]1)NC(=O)[C@H](Cc1c[nH]c2ccccc12)NC(=O)[C@H](Cc1ccc(O)cc1)NC(=O)[C@H](CS)NC(=O)[C@@H](NC(=O)[C@H](Cc1c[nH]c2ccccc12)NC(=O)[C@H](CC(=O)O)NC(=O)[C@H](CO)NC(=O)[C@@H](N)CS)C(C)C)C(=O)N[C@@H](Cc1ccc(O)cc1)C(=O)NCC(N)=O` (H-CSDWVCYWHVYG-NH2) came in with an IC50 of 500 to 1000 nM. Take `CC(=O)N[C@@H](CS)C(=O)N[C@@H](C)C(=O)N[C@@H](CC(=O)O)C(=O)N[C@@H](Cc1c[nH]c2ccccc12)C(=O)N[C@@H](CCC(=O)O)C(=O)N[C@@H](CS)C(=O)N[C@@H](Cc1ccc(O)cc1)C(=O)N[C@@H](Cc1c[nH]c2ccccc12)C(=O)N[C@@H](Cc1cnc[nH]1)C(=O)N[C@H](C(=O)N[C@@H](Cc1ccccc1)C(=O)NCC(N)=O)[C@@H](C)O`: the IC50 was > 1000 nM. In the case of `CCCCCCCCCCCCCCCC(=O)NCCCC[C@H](NC(=O)[C@H](CCC(=O)O)NC(=O)[C@H](CC(C)C)NC(=O)[C@H](Cc1c[nH]c2ccccc12)NC(=O)[C@H](Cc1ccc(O)cc1)NC(=O)[C@H](CS)NC(=O)[C@H](CCC(N)=O)NC(=O)[C@H](Cc1c[nH]c2ccccc12)NC(=O)[C@@H](NC(=O)[C@H](CCC(N)=O)NC(=O)[C@H](CS)NC(C)=O)[C@@H](C)O)C(=O)NCC(N)=O` (Ac-CQTWQCYWLEK(Palmitoyl)G-NH2) it was > 6000 nM; in that of `CC(=O)N[C@H]1CCSC[C@@H](C(=O)N[C@@H](Cc2ccc(OCCN)cc2)C(=O)N[C@@H](Cc2ccc3ccccc3c2)C(=O)N[C@@](C)(CCCCN)C(=O)N[C@@H](CCC(=O)O)C(=O)N[C@@H](CC(N)=O)C(=O)NCC(N)=O)NC(=O)[C@H](CCC(N)=O)NC(=O)[C@H](CCCNCc2ccccc2)NC(=O)[C@H]([C@@H](C)O)NC(=O)[C@H](CCC(N)=O)NC1=O`, > 3000 nM. With `CC(=O)N[C@@H](CS)C(=O)N[C@@H](C)C(=O)N[C@@H](CC(=O)O)C(=O)N[C@@H](Cc1c[nH]c2ccccc12)C(=O)N[C@H](C(=O)N[C@@H](CS)C(=O)N[C@@H](Cc1ccc(O)cc1)C(=O)N[C@@H](Cc1c[nH]c2ccccc12)C(=O)N(C)[C@@H](Cc1cnc[nH]1)C(=O)N[C@H](C(=O)N[C@@H](Cc1ccccc1)C(=O)NCC(=O)NCCOCC(=O)N[C@H](CCCCN)C(N)=O)[C@@H](C)O)C(C)C` the figure was > 1000 nM; with `CC(=O)N[C@@H](CS)C(=O)N[C@@H](CCC(N)=O)C(=O)N[C@H](C(=O)N[C@@H](Cc1c[nH]c2ccccc12)C(=O)N[C@@H](CCC(N)=O)C(=O)N[C@@H](CS)C(=O)N[C@@H](Cc1ccc(O)cc1)C(=O)N[C@@H](Cc1c[nH]c2ccccc12)C(=O)N[C@@H](CCCNC(=N)N)C(=O)N[C@@H](CCCN)C(=O)N[C@@H](CC(N)=O)C(=O)NCC(=O)NCCOCC(=O)N[C@H](CCCCN)C(N)=O)[C@@H](C)O`, < 500 nM.

Consider `CC(C)[C@H](NC(=O)[C@H](Cc1c[nH]c2ccccc12)NC(=O)[C@H](CC(=O)O)NC(=O)[C@H](C)NC(=O)[C@@H](N)CS)C(=O)N[C@@H](CS)C(=O)N[C@@H](Cc1ccc(O)cc1)C(=O)N[C@@H](Cc1c[nH]c2ccccc12)C(=O)N[C@@H](Cc1cnc[nH]1)C(=O)N[C@H](C(=O)N[C@@H](Cc1ccccc1)C(N)=O)[C@@H](C)O`, for which the half-inhibitory concentration (IC50) was > 1000 nM.

In the case of `CC(C)[C@H](NC(=O)[C@H](Cc1c[nH]c2ccccc12)NC(=O)[C@H](CC(=O)O)NC(=O)CN(C)C(=O)[C@@H](N)CS)C(=O)N[C@@H](CS)C(=O)N[C@@H](Cc1ccc(O)cc1)C(=O)N[C@@H](Cc1cccc2ccccc12)C(=O)N[C@@H](Cc1cnc[nH]1)C(=O)N[C@H](C(=O)N[C@@H](Cc1ccccc1)C(=O)O)[C@@H](C)O`, the IC50 was > 1000 nM. With `CC(=O)NC1C/C=C\CCC(C(=O)N[C@@H](Cc2ccc(O)cc2)C(=O)N[C@@H](Cc2c[nH]c3ccccc23)C(=O)N[C@@H](CCCNC(=N)N)C(=O)N[C@@H](CCCCN)C(=O)N[C@@H](Cc2ccccc2)C(=O)NCC(=O)NCCOCC(=O)N[C@H](CCCCN)C(N)=O)NC(=O)[C@H](CCC(N)=O)NC(=O)[C@H](Cc2c[nH]c3ccccc23)NC(=O)[C@H]([C@@H](C)O)NC(=O)[C@H](CCCNC(=N)N)NC1=O` (some centres undefined) the figure was 100 to 1000 nM; with `CC(C)[C@H](NC(=O)[C@H](Cc1c[nH]c2ccccc12)NC(=O)[C@H](CC(N)=O)NC(=O)[C@H](CO)NC(=O)[C@@H](N)CS)C(=O)N[C@@H](CS)C(=O)N[C@@H](Cc1ccc(O)cc1)C(=O)N[C@@H](Cc1c[nH]c2ccccc12)C(=O)N[C@@H](Cc1cnc[nH]1)C(=O)N[C@H](C(=O)N[C@@H](Cc1ccc(O)cc1)C(=O)NCC(N)=O)[C@@H](C)O` (H-CSNWVCYWHTYG-NH2), < 500 nM; with `CC(=O)N[C@@H](CS)C(=O)N[C@@H](CCCCNC(=O)COCC(=O)NCCCC[C@H](NC(=O)[C@H](CS)NC(C)=O)C(=O)N[C@@H](CC(=O)O)C(=O)N[C@@H](Cc1c[nH]c2ccccc12)C(=O)N[C@H](C(=O)N[C@@H](CS)C(=O)N[C@@H](Cc1ccc(O)cc1)C(=O)N[C@@H](Cc1c[nH]c2ccccc12)C(=O)N[C@@H](Cc1cnc[nH]1)C(=O)N[C@H](C(=O)N[C@@H](Cc1ccccc1)C(=O)NCC(=O)O)[C@@H](C)O)C(C)C)C(=O)N[C@@H](CC(=O)O)C(=O)N[C@@H](Cc1c[nH]c2ccccc12)C(=O)N[C@H](C(=O)N[C@@H](CS)C(=O)N[C@@H](Cc1ccc(O)cc1)C(=O)N[C@@H](Cc1c[nH]c2ccccc12)C(=O)N[C@@H](Cc1cnc[nH]1)C(=O)N[C@H](C(=O)N[C@@H](Cc1ccccc1)C(=O)NCC(=O)O)[C@@H](C)O)C(C)C`, > 10000 nM.

With `CC(=O)N[C@@H](C)C(=O)N[C@H](C(=O)N[C@@H](CC(=O)O)C(=O)N[C@@H](Cc1c[nH]c2ccccc12)C(=O)N[C@H](C(=O)N[C@H](C(=O)N[C@@H](Cc1ccc(O)cc1)C(=O)N[C@@H](Cc1c[nH]c2ccccc12)C(=O)N[C@@H](CCCN)C(=O)N[C@@H](CN)C(=O)N[C@@H](Cc1ccccc1)C(=O)NCC(=O)NCCOCC(=O)N[C@H](CCCCN)C(N)=O)C(C)(C)S)C(C)C)C(C)(C)S`, the IC50 is > 30000 nM. Turning to `CC(=O)N[C@@H](CS)C(=O)N[C@H](C(=O)N[C@@H](CC(=O)O)C(=O)N[C@@H](Cc1c[nH]c2ccccc12)C(=O)N[C@H](C(=O)N[C@@H](CS)C(=O)N[C@@H](Cc1ccc(O)cc1)C(=O)N[C@@H](Cc1c[nH]c2ccccc12)C(=O)N[C@@H](Cc1cnc[nH]1)C(=O)N[C@H](C(=O)N[C@@H](Cc1ccccc1)C(=O)NCC(N)=O)[C@@H](C)O)C(C)C)[C@@H](C)O`, the half-inhibitory concentration (IC50) was < 500 nM. Take `CC(C)[C@H](NC(=O)[C@H](Cc1c[nH]c2ccccc12)NC(=O)[C@@H](NC(=O)[C@H](Cc1cnc[nH]1)NC(=O)[C@@H](N)CS)[C@@H](C)O)C(=O)N[C@@H](CS)C(=O)N[C@@H](Cc1ccc(O)cc1)C(=O)N[C@@H](Cc1c[nH]c2ccccc12)C(=O)N[C@@H](Cc1cnc[nH]1)C(=O)N[C@@H](CCC(=O)O)C(=O)N[C@@H](Cc1ccccc1)C(=O)N[C@@H](CO)C(N)=O` (H-CHTWVCYWHEFS-NH2): the half-inhibitory concentration (IC50) is > 1000 nM.

The compound `CC(=O)NCCCC[C@H](NC(=O)[C@](C)(CCCCN)NC(=O)[C@H](Cc1ccc2ccccc2c1)NC(=O)[C@H](Cc1ccc(O)cc1)NC(=O)[C@@H]1CSCC[C@H](NC(C)=O)C(=O)N[C@@H](CCC(N)=O)C(=O)N[C@@H]([C@@H](C)O)C(=O)N[C@@H](Cc2c[nH]c3ccccc23)C(=O)N[C@@H](CCC(N)=O)C(=O)N1)C(=O)N[C@@H](CC(N)=O)C(=O)NCC(=O)NCC(=O)N[C@@H](CCC(=O)O)C(N)=O` returned an IC50 of 25 to 100 nM. Regarding `CC(=O)N[C@@H](CS)C(=O)N[C@@H](CCC(N)=O)C(=O)N[C@H](C(=O)N[C@@H](Cc1c[nH]c2ccccc12)C(=O)N[C@@H](CCC(N)=O)C(=O)N[C@@H](CS)C(=O)N[C@@H](Cc1ccc(O)cc1)C(=O)N[C@@H](Cc1c[nH]c2ccccc12)C(=O)N[C@H](CCCNC(=N)N)C(=O)N[C@@H](CCC(=O)O)C(=O)N[C@@H](CC(N)=O)C(=O)NCC(=O)NCCOCC(=O)N[C@H](CCCCN)C(N)=O)[C@@H](C)O`, the 50% inhibitory concentration (IC50) was > 1000 nM. `CC(=O)N[C@@H](CS)C(=O)N[C@@H](CCC(N)=O)C(=O)N[C@H](C(=O)N[C@@H](Cc1c[nH]c2ccccc12)C(=O)N[C@@H](CCC(N)=O)C(=O)N[C@@H](CS)C(=O)N[C@@H](Cc1ccc(O)cc1)C(=O)N[C@@](C)(Cc1c[nH]c2ccccc12)C(=O)N[C@@H](CCCNC(=N)N)C(=O)N[C@H](C(=O)N[C@@H](CC(N)=O)C(=O)NCC(=O)NCCC(=O)N[C@H](CCCCN)C(N)=O)C(C)C)[C@@H](C)O` displayed an IC50 of 6000 nM.

In the case of `CC(=O)NCCCC[C@H](NC(=O)[C@](C)(CCCCN)NC(=O)[C@@H]1Cc2ccccc2CN1C(=O)[C@H](Cc1ccc(OCCN)cc1)NC(=O)[C@@H]1CSCC[C@H](NC(C)=O)C(=O)N[C@@H](CN)C(=O)N[C@@H]([C@@H](C)O)C(=O)N[C@@H](Cc2c[nH]c3ccccc23)C(=O)N[C@@H](CCC(N)=O)C(=O)N1)C(=O)N[C@@H](CC(N)=O)C(=O)NCC(N)=O` (Ac-[Abu(4-yl)][Dap]TWQC[AEF][Tic][αMeK]K(Ac)NG-NH2; thioether 1-6), the 50% inhibitory concentration (IC50) is > 3000 nM.
